The target of assay [1] is T1, hNaV1.7 (Homo sapiens, UniProt Q15858). Description: cell-based. It is filed as cell-based. The following applies: for IC50: hNaV1.7 IC50.
Assay [2] deals with hCaV1.2 (Homo sapiens, UniProt Q13936). The assay is described as follows: cell-based. The following applies: read-out: IC90–95 (compound concentration necessary to inhibit 90–95% of current).
Assay [3] deals with T1, hNaV1.7. The following applies: cited from earlier work.

Where two headings read alike, the source gives them in different places. Residues, ends and D or L forms follow the SMILES beside them. A value given as a limit tells only on which side of the number the result lay.

T1 sequence (Q15858 whole entry): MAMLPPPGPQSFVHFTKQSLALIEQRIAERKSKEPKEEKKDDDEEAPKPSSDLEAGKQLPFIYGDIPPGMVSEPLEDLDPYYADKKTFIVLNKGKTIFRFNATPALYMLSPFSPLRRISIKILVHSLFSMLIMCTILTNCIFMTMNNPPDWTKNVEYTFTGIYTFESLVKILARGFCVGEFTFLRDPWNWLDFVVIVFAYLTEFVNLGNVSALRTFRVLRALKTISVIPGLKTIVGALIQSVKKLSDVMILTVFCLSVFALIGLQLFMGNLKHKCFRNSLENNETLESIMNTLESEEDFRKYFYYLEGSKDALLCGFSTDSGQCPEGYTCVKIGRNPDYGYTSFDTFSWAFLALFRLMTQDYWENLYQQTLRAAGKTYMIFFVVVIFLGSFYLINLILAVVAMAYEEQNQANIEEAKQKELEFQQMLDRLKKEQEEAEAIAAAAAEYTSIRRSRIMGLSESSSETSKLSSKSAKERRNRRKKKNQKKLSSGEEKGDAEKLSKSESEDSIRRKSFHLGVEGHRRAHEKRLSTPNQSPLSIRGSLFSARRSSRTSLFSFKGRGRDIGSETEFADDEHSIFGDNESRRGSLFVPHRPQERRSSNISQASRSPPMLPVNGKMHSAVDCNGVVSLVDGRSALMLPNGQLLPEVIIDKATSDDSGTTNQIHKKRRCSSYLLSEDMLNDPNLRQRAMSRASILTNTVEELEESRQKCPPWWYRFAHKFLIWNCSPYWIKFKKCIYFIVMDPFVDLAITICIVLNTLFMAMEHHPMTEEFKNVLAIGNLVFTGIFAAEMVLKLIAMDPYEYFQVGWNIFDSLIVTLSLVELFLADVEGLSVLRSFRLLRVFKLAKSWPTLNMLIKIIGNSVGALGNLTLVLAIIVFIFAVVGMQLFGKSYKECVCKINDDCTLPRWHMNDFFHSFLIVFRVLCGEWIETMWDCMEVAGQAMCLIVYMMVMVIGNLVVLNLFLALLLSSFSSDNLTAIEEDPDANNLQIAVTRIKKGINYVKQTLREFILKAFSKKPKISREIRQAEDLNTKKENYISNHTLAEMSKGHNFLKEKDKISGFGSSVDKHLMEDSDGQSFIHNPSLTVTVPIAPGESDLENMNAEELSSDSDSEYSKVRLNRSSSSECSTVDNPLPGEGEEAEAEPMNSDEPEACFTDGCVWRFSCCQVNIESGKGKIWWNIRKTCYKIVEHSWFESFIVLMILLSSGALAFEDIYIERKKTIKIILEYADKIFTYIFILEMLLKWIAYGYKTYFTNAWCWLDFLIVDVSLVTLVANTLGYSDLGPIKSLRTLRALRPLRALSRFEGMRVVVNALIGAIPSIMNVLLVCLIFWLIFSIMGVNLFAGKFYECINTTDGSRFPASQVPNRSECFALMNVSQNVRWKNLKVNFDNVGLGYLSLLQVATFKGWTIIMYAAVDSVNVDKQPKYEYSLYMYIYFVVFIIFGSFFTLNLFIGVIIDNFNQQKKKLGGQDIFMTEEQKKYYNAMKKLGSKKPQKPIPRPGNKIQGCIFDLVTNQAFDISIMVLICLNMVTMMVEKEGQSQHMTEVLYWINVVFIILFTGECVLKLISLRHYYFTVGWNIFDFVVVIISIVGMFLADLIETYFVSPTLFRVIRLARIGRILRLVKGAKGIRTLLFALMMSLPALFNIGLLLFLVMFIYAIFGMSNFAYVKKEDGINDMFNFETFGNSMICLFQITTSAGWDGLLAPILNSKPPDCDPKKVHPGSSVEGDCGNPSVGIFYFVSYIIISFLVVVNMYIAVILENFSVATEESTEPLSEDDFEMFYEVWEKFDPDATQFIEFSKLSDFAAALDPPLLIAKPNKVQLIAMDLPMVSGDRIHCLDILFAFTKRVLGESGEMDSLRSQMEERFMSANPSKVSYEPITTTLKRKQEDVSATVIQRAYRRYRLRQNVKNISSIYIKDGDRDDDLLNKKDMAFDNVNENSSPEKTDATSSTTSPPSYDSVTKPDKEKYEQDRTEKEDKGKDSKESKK

In general, IC50 refers to the concentration at which inhibition is half-maximal. On to `CC(C)C[C@@H]1NC(=O)[C@@H](NC(=O)[C@H](C)N)CSSC[C@@H]2NC(=O)[C@@H]3CSSC[C@@H](C(=O)N[C@@H](CCCNC(=N)N)C(=O)N[C@@H](Cc4ccc(O)cc4)C(=O)N[C@@H](CCCCN)C(=O)N[C@@H](CC(C)C)C(=O)N[C@@H](Cc4ccccc4)C(=O)O)NC(=O)[C@H](Cc4c[nH]c5ccccc45)NC(=O)[C@@H]4CCCN4C(=O)[C@H](Cc4ccc(O)cc4)NC(=O)[C@H](CCCCN)NC(=O)[C@H](Cc4c[nH]c5ccccc45)NC(=O)[C@H](CCC(=O)O)NC(=O)[C@H](CSSC[C@H](NC(=O)[C@H](C)NC(=O)[C@H](CC(=O)O)NC(=O)[C@H](Cc4c[nH]c5ccccc45)NC(=O)[C@H](CCC(N)=O)NC(=O)CNC1=O)C(=O)N[C@@H](CC(=O)O)C(=O)N1CCC[C@H]1C(=O)N[C@@H](CCCCN)C(=O)N[C@@H](C)C(=O)N[C@@H](CO)C(=O)N[C@@H](CCCCN)C(=O)N3)NC(=O)[C@H](C)NC(=O)[C@H](Cc1ccc(O)cc1)NC(=O)[C@H](CC(N)=O)NC(=O)[C@@H]1CCCN1C2=O` [S8A] (HELM PEPTIDE1{A.C.L.G.Q.W.D.A.C.D.P.K.A.S.K.C.C.P.N.Y.A.C.E.W.K.Y.P.W.C.R.Y.K.L.F}$PEPTIDE1,PEPTIDE1,2:R3-17:R3|PEPTIDE1,PEPTIDE1,9:R3-22:R3|PEPTIDE1,PEPTIDE1,16:R3-29:R3$$$V2.0), for which, in assay [1], the “modification of variant affinity for hNaV1.7 relative to wild-type” value is “less than 3 fold”. This compound also gave an IC50 in assay [1] (SD) of 180 nM. For `[Cl][Cd][Cl]` [Cadmium (chloride), reference compound], the IC90 in assay [2] is 200000 nM. In the case of `COC(=O)C1=C(C)NC(C)=C(C(=O)OC)C1c1ccccc1[N+](=O)[O-]` [Nifedipine, reference compound], the IC90 in assay [2] (CHO) worked out at 10000 nM. As for `CC(C)C[C@@H]1NC(=O)[C@@H](NC(=O)[C@H](C)N)CSSC[C@@H]2NC(=O)[C@@H]3CSSC[C@@H](C(=O)N[C@@H](CCCNC(=N)N)C(=O)N[C@@H](Cc4ccc(O)cc4)C(=O)N[C@@H](CCCCN)C(=O)N[C@@H](CC(C)C)C(=O)N[C@@H](Cc4ccccc4)C(=O)O)NC(=O)[C@H](Cc4c[nH]c5ccccc45)NC(=O)[C@@H]4CCCN4C(=O)[C@H](C)NC(=O)[C@H](CCCCN)NC(=O)[C@H](Cc4c[nH]c5ccccc45)NC(=O)[C@H](CCC(=O)O)NC(=O)[C@H](CSSC[C@H](NC(=O)[C@H](CO)NC(=O)[C@H](CC(=O)O)NC(=O)[C@H](Cc4c[nH]c5ccccc45)NC(=O)[C@H](CCC(N)=O)NC(=O)CNC1=O)C(=O)N[C@@H](CC(=O)O)C(=O)N1CCC[C@H]1C(=O)N[C@@H](CCCCN)C(=O)N[C@@H](C)C(=O)N[C@@H](CO)C(=O)N[C@@H](CCCCN)C(=O)N3)NC(=O)[C@H](C)NC(=O)[C@H](Cc1ccc(O)cc1)NC(=O)[C@H](CC(N)=O)NC(=O)[C@@H]1CCCN1C2=O` [Y26A] (HELM PEPTIDE1{A.C.L.G.Q.W.D.S.C.D.P.K.A.S.K.C.C.P.N.Y.A.C.E.W.K.A.P.W.C.R.Y.K.L.F}$PEPTIDE1,PEPTIDE1,2:R3-17:R3|PEPTIDE1,PEPTIDE1,9:R3-22:R3|PEPTIDE1,PEPTIDE1,16:R3-29:R3$$$V2.0), the IC50 in assay [1] was > 10000 nM.

`CC(C)C[C@@H]1NC(=O)[C@@H](NC(=O)[C@H](C)N)CSSC[C@@H]2NC(=O)[C@@H]3CSSC[C@@H](C(=O)N[C@@H](CCCNC(=N)N)C(=O)N[C@@H](Cc4ccc(O)cc4)C(=O)N[C@@H](CCCCN)C(=O)N[C@@H](CC(C)C)C(=O)N[C@@H](Cc4ccccc4)C(=O)O)NC(=O)[C@H](Cc4c[nH]c5ccccc45)NC(=O)[C@@H]4CCCN4C(=O)[C@H](Cc4ccc(O)cc4)NC(=O)[C@H](CCCCN)NC(=O)[C@H](Cc4c[nH]c5ccccc45)NC(=O)[C@H](CCC(=O)O)NC(=O)[C@H](CSSC[C@H](NC(=O)[C@H](CO)NC(=O)[C@H](CC(=O)O)NC(=O)[C@H](Cc4c[nH]c5ccccc45)NC(=O)[C@H](CCC(N)=O)NC(=O)CNC1=O)C(=O)N[C@@H](CC(=O)O)C(=O)N1CCC[C@H]1C(=O)N[C@@H](C)C(=O)N[C@@H](C)C(=O)N[C@@H](CO)C(=O)N[C@@H](CCCCN)C(=O)N3)NC(=O)[C@H](C)NC(=O)[C@H](Cc1ccc(O)cc1)NC(=O)[C@H](CC(N)=O)NC(=O)[C@@H]1CCCN1C2=O` [K12A] (HELM PEPTIDE1{A.C.L.G.Q.W.D.S.C.D.P.A.A.S.K.C.C.P.N.Y.A.C.E.W.K.Y.P.W.C.R.Y.K.L.F}$PEPTIDE1,PEPTIDE1,2:R3-17:R3|PEPTIDE1,PEPTIDE1,9:R3-22:R3|PEPTIDE1,PEPTIDE1,16:R3-29:R3$$$V2.0): in assay [1], the “modification of variant affinity for hNaV1.7 relative to wild-type” value is recorded as “less than 3 fold”. The same compound came in with an IC50 in assay [1] (SD) of 252 nM.

Consider `CC(C)C[C@@H]1NC(=O)[C@@H](NC(=O)[C@@H]2CCC(=O)N2)CSSC[C@@H]2NC(=O)[C@@H]3CSSC[C@@H](C(=O)N[C@@H](CCCNC(=N)N)C(=O)N[C@@H](Cc4ccc(O)cc4)C(=O)N[C@@H](CCCCN)C(=O)N[C@@H](CC(C)C)C(=O)N[C@@H](Cc4ccccc4)C(=O)O)NC(=O)[C@H](Cc4c[nH]c5ccccc45)NC(=O)[C@@H]4CCCN4C(=O)[C@H](Cc4ccc(O)cc4)NC(=O)[C@H](CCCCN)NC(=O)[C@H](Cc4c[nH]c5ccccc45)NC(=O)[C@H](CCC(=O)O)NC(=O)[C@H](CSSC[C@H](NC(=O)[C@H](CO)NC(=O)[C@H](CC(=O)O)NC(=O)[C@H](Cc4c[nH]c5ccccc45)NC(=O)[C@H](CCC(N)=O)NC(=O)CNC1=O)C(=O)N[C@@H](CC(=O)O)C(=O)N1CCC[C@H]1C(=O)N[C@@H](CCCCN)C(=O)N[C@@H](C)C(=O)N[C@@H](CO)C(=O)N[C@@H](CCCCN)C(=O)N3)NC(=O)[C@H](C)NC(=O)[C@H](Cc1ccc(O)cc1)NC(=O)[C@H](CC(N)=O)NC(=O)[C@@H]1CCCN1C2=O` [A1Z] (HELM PEPTIDE1{[Glp].C.L.G.Q.W.D.S.C.D.P.K.A.S.K.C.C.P.N.Y.A.C.E.W.K.Y.P.W.C.R.Y.K.L.F}$PEPTIDE1,PEPTIDE1,2:R3-17:R3|PEPTIDE1,PEPTIDE1,9:R3-22:R3|PEPTIDE1,PEPTIDE1,16:R3-29:R3$$$V2.0), for which, in assay [1], the “modification of variant affinity for hNaV1.7 relative to wild-type” value is recorded as “less than 3 fold”. This compound came in with an IC50 in assay [1] (SD) of 172 nM. In the case of `CC(C)C[C@@H]1NC(=O)[C@@H](NC(=O)[C@H](C)N)CSSC[C@@H]2NC(=O)[C@@H]3CSSC[C@@H](C(=O)N[C@@H](CCCNC(=N)N)C(=O)N[C@@H](Cc4ccc(O)cc4)C(=O)N[C@@H](CCCCN)C(=O)N[C@@H](CC(C)C)C(=O)N[C@@H](Cc4ccccc4)C(=O)O)NC(=O)[C@H](Cc4c[nH]c5ccccc45)NC(=O)[C@@H]4CCCN4C(=O)[C@H](Cc4ccc(O)cc4)NC(=O)[C@H](CCCCN)NC(=O)[C@H](Cc4c[nH]c5ccccc45)NC(=O)[C@H](CCC(=O)O)NC(=O)[C@H](CSSC[C@H](NC(=O)[C@H](CO)NC(=O)[C@H](CC(=O)O)NC(=O)[C@H](Cc4c[nH]c5ccccc45)NC(=O)[C@H](CCC(N)=O)NC(=O)CNC1=O)C(=O)N[C@@H](CC(=O)O)C(=O)N1CCC[C@H]1C(=O)N[C@@H](CCCCN)C(=O)N[C@@H](C)C(=O)N[C@@H](CO)C(=O)N[C@@H](C)C(=O)N3)NC(=O)[C@H](C)NC(=O)[C@H](Cc1ccc(O)cc1)NC(=O)[C@H](CC(N)=O)NC(=O)[C@@H]1CCCN1C2=O` [K15A] (HELM PEPTIDE1{A.C.L.G.Q.W.D.S.C.D.P.K.A.S.A.C.C.P.N.Y.A.C.E.W.K.Y.P.W.C.R.Y.K.L.F}$PEPTIDE1,PEPTIDE1,2:R3-17:R3|PEPTIDE1,PEPTIDE1,9:R3-22:R3|PEPTIDE1,PEPTIDE1,16:R3-29:R3$$$V2.0), the “modification of variant affinity for hNaV1.7 relative to wild-type” value in assay [1] is on record as “less than 3 fold”. The IC50 in assay [1] (SD) was 706 nM. Turning to `CC(C)C[C@@H]1NC(=O)[C@@H](NC(=O)[C@H](C)N)CSSC[C@@H]2NC(=O)[C@@H]3CSSC[C@@H](C(=O)N[C@@H](CCCNC(=N)N)C(=O)N[C@@H](Cc4ccc(O)cc4)C(=O)N[C@@H](CCCCN)C(=O)N[C@@H](CC(C)C)C(=O)N[C@@H](Cc4ccccc4)C(=O)O)NC(=O)[C@H](Cc4c[nH]c5ccccc45)NC(=O)[C@@H]4CCCN4C(=O)[C@H](Cc4ccc(O)cc4)NC(=O)[C@H](CCCCN)NC(=O)[C@H](C)NC(=O)[C@H](CCC(=O)O)NC(=O)[C@H](CSSC[C@H](NC(=O)[C@H](CO)NC(=O)[C@H](CC(=O)O)NC(=O)[C@H](Cc4c[nH]c5ccccc45)NC(=O)[C@H](CCC(N)=O)NC(=O)CNC1=O)C(=O)N[C@@H](CC(=O)O)C(=O)N1CCC[C@H]1C(=O)N[C@@H](CCCCN)C(=O)N[C@@H](C)C(=O)N[C@@H](CO)C(=O)N[C@@H](CCCCN)C(=O)N3)NC(=O)[C@H](C)NC(=O)[C@H](Cc1ccc(O)cc1)NC(=O)[C@H](CC(N)=O)NC(=O)[C@@H]1CCCN1C2=O` [W24A] (HELM PEPTIDE1{A.C.L.G.Q.W.D.S.C.D.P.K.A.S.K.C.C.P.N.Y.A.C.E.A.K.Y.P.W.C.R.Y.K.L.F}$PEPTIDE1,PEPTIDE1,2:R3-17:R3|PEPTIDE1,PEPTIDE1,9:R3-22:R3|PEPTIDE1,PEPTIDE1,16:R3-29:R3$$$V2.0), the IC50 in assay [1] was > 10000 nM.

Regarding “Pre1a: spider toxin, NaV ligand (CLGWFSRCSPKNDKCCPNYKCSSKDLWCKYKIW)”, the IC50 in assay [3] is 114 nM.

On to `CC(C)C[C@@H]1NC(=O)[C@@H](NC(=O)[C@H](C)N)CSSC[C@@H]2NC(=O)[C@@H]3CSSC[C@@H](C(=O)N[C@@H](CCCNC(=N)N)C(=O)N[C@@H](Cc4ccc(O)cc4)C(=O)N[C@@H](CCCCN)C(=O)N[C@@H](CC(C)C)C(=O)N[C@@H](Cc4ccccc4)C(=O)O)NC(=O)[C@H](Cc4c[nH]c5ccccc45)NC(=O)[C@@H]4CCCN4C(=O)[C@H](Cc4ccc(O)cc4)NC(=O)[C@H](C)NC(=O)[C@H](Cc4c[nH]c5ccccc45)NC(=O)[C@H](CCC(=O)O)NC(=O)[C@H](CSSC[C@H](NC(=O)[C@H](CO)NC(=O)[C@H](CC(=O)O)NC(=O)[C@H](Cc4c[nH]c5ccccc45)NC(=O)[C@H](CCC(N)=O)NC(=O)CNC1=O)C(=O)N[C@@H](CC(=O)O)C(=O)N1CCC[C@H]1C(=O)N[C@@H](CCCCN)C(=O)N[C@@H](C)C(=O)N[C@@H](CO)C(=O)N[C@@H](CCCCN)C(=O)N3)NC(=O)[C@H](C)NC(=O)[C@H](Cc1ccc(O)cc1)NC(=O)[C@H](CC(N)=O)NC(=O)[C@@H]1CCCN1C2=O` [K25A] (HELM PEPTIDE1{A.C.L.G.Q.W.D.S.C.D.P.K.A.S.K.C.C.P.N.Y.A.C.E.W.A.Y.P.W.C.R.Y.K.L.F}$PEPTIDE1,PEPTIDE1,2:R3-17:R3|PEPTIDE1,PEPTIDE1,9:R3-22:R3|PEPTIDE1,PEPTIDE1,16:R3-29:R3$$$V2.0), for which the IC50 in assay [1] was > 10000 nM.

The record behind these values is PMC6784069 (Toxins, 2019).
